Laboratory results from patent US11459336B2, “Pyrazine carbamates and their use as GluN2B receptor modulators” (JANSSEN PHARMACEUTICA NV, priority 2019, dated 2022).

How the values were obtained:
[1] = target: T1, human GluN1/GluN2B NMDA receptors (Homo sapiens, UniProt Q05586+Q13224); assay: Calcium flux (FLIPR) assay on cloned human GluN1/GluN2B ion channels expressed in mammalian cells, standard assay; assay type: cell-based; conditions: glutamate ~EC40, 10 μM glycine, stable cell line with Tet-On induced expression
T1 construct: expressed in transfected cells
Procedure: (§1) NMDA receptors are ion channels that are highly permeable to Ca^2+ ions, rendering it possible to monitor NMDA receptor function using cell-based calcium flux assay. In this assay, co-agonists glutamate and glycine are added to cells heterologously expressing human GluN1/GluN2B NMDA receptors to initiate cellular Ca^2+ influx. The time course of the changes in intracellular calcium is measured using a fluorescent dye and a FLIPR (Fluorometric Imaging Plate Reader) device.
(§2) Twenty four hours before measurements, the expression of the NMDA receptors in the stable cell line is induced with Tet-On inducible system in the presence of a non-selective NMDA receptor blocker. On the day of the experiment, cell culture media is carefully washed and the cells are loaded with Calcium 5 Dye Kit (Molecular Devices) in dye loading buffer containing 137 mM NaCl, 4 mM KCl, 2 mM CaCl2, 0.5 mM MgCl2 (standard assay) or 1.5 mM MgCl2 (HTS assay), 10 mM HEPES and 5 mM D-glucose; pH 7.4. After 1 h incubation at the room temperature, the dye is washed away with the assay buffer (137 mM NaCl (standard assay) or 150 mM (HTS assay), 4 mM KCl (standard assay) or 3 mM (HTS assay), 2 mM CaCl2, 0.01 mM EDTA, 10 mM HEPES and 5 mM D-glucose; pH 7.4) In the FLIPR TETRA reader, various concentrations of the test compounds are added to the cells for 5 min while fluorescence is monitored to detect potential agonist activity. Next, co-agonists, glutamate and glycine are added for another 5 minutes. The concentration of glutamate corresponding to ˜EC40 (standard assay) or EC40 (HTS assay) is used to maximize the assay's signal window and ability to detect NMDA receptor antagonists and negative allosteric modulators. A saturating concentration (10 μM) of glycine is also present in the assay. A non-selective NMDA receptor antagonist, (+)MK-801 is used as a positive control for antagonist activity. The fluorescent signal in the presence of test compounds is quantified and normalized to the signal defined by the appropriate control wells.

[2] = target: T2, human GluN1/GluN2B NMDA receptors (Homo sapiens, UniProt Q13224); assay: as above; assay type: cell-based; conditions: glutamate ~EC40, 10 μM glycine, stable cell line with Tet-On induced expression
T2 construct: expressed in transfected cells
Procedure: as §1, §2

T2 sequence (Q13224 27-1484, other chains not shown): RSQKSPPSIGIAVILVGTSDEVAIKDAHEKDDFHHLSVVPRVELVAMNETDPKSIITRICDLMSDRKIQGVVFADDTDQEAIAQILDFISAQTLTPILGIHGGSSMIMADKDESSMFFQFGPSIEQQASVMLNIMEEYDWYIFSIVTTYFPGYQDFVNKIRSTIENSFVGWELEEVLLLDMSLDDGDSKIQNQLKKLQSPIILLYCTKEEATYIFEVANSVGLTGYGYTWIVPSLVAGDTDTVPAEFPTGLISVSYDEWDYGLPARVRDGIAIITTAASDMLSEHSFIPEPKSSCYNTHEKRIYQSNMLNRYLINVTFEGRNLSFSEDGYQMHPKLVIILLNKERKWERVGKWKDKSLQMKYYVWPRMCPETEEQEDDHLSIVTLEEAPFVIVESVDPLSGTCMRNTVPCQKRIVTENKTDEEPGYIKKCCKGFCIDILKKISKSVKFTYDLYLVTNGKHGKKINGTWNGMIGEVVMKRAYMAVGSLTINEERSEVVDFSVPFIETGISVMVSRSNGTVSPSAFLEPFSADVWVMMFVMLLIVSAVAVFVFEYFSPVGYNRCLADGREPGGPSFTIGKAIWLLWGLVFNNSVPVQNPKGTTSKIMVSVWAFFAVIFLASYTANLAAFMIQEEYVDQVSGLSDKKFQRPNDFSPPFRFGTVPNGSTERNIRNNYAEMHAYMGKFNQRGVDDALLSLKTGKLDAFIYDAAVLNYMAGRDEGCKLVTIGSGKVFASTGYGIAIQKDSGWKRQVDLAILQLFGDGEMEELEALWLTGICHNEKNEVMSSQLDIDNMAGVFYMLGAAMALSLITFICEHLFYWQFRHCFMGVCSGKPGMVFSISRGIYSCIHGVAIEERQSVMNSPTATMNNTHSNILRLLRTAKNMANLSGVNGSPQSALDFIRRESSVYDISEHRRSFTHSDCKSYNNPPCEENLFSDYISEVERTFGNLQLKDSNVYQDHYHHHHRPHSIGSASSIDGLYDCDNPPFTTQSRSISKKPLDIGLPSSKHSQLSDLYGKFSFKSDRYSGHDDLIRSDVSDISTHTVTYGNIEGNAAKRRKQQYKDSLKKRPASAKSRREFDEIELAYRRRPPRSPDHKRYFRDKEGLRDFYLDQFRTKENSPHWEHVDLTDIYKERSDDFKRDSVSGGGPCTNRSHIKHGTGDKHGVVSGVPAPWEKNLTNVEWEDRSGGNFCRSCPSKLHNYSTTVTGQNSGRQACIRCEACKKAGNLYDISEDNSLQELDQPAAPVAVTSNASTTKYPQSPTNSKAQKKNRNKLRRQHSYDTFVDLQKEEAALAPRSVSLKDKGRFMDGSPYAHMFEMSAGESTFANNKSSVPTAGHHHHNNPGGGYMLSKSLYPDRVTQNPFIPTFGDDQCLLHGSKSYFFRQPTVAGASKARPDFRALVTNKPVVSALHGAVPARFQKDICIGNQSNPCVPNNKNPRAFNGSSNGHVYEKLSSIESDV
T1 sequence (Q13224 27-1484, other chains not shown): as above

SMILES	IC50 [1]	IC50 [2]
CN(C)C(=O)C1CN(Cc2cncc(-c3ccc(Cl)c(OC(F)F)c3)n2)C(=O)O1 (racemic) [Example 55, (R/S)-3-[[6-[4-Chloro-3-(difluoromethoxy)phenyl]pyrazin-2-yl]methyl]-N,N-dimethyl-2-oxo-oxazolidine-5-carboxamide]	1390 nM	
CNC(=O)C1CN(Cc2cncc(-c3ccc(Cl)c(OC(F)F)c3)n2)C(=O)O1 (racemic) [Example 56, (R/S)-3-[[6-[4-Chloro-3-(difluoromethoxy)phenyl]pyrazin-2-yl]methyl]-N-methyl-2-oxo-oxazolidine-5-carboxamide]	2050 nM	
O=C1OC(C(=O)N2CCC2)CN1Cc1cncc(-c2ccc(F)c(C(F)F)c2)n1 (racemic) [Example 58, (R/S)-5-(Azetidine-1-carbonyl)-3-[[6-[3-(difluoromethyl)-4-fluoro-phenyl]pyrazin-2-yl]methyl]oxazolidin-2-one]	> 3000 nM	
CNC(=O)C1CN(Cc2cncc(-c3ccc(F)c(OC(F)F)c3)n2)C(=O)O1 (racemic) [Example 60, (R/S)-3-[[6-[3-(Difluoromethoxy)-4-fluoro-phenyl]pyrazin-2-yl]methyl]-N-methyl-2-oxo-oxazolidine-5-carboxamide]	5390 nM	
O=C1OC(C(=O)N2CCC2)CN1Cc1cncc(-c2ccc(F)c(OC(F)F)c2)n1 (racemic) [Example 61, (R/S)-5-(Azetidine-1-carbonyl)-3-[[6-[3-(difluoromethoxy)-4-fluoro-phenyl]pyrazin-2-yl]methyl]oxazolidin-2-one]	5740 nM	
CN(C)C(=O)C1CN(Cc2cncc(-c3ccc(F)c(C(C)(F)F)c3)n2)C(=O)O1 (racemic) [Example 62, (R/S)-3-[[6-[3-(1,1-Difluoroethyl)-4-fluoro-phenyl]pyrazin-2-yl]methyl]-N,N-dimethyl-2-oxo-oxazolidine-5-carboxamide]	3680 nM	
CNC(=O)C1CN(Cc2cncc(-c3ccc(F)c(C(C)(F)F)c3)n2)C(=O)O1 (racemic) [Example 63, (R/S)-3-[[6-[3-(1,1-Difluoroethyl)-4-fluoro-phenyl]pyrazin-2-yl]methyl]-N-methyl-2-oxo-oxazolidine-5-carboxamide]	> 3000 nM	
CC(F)(F)c1cc(-c2cncc(CN3CC(C(=O)N4CCC4)OC3=O)n2)ccc1F (racemic) [Example 64, (R/S)-5-(Azetidine-1-carbonyl)-3-[[6-[3-(1,1-difluoroethyl)-4-fluoro-phenyl]pyrazin-2-yl]methyl]oxazolidin-2-one]	> 3000 nM	
CN(C)C(=O)C1CN(Cc2cncc(-c3ccc(F)c(C(F)F)c3)n2)C(=O)O1 (racemic) [Example 65, (R/S)-3-[[6-[3-(Difluoromethyl)-4-fluoro-phenyl]pyrazin-2-yl]methyl]-N,N-dimethyl-2-oxo-oxazolidine-5-carboxamide]	> 3000 nM	
CN(C)C(=O)C1CN(Cc2cncc(-c3ccc(F)c(OC(F)F)c3)n2)C(=O)O1 (racemic) [Example 66, (R/S)-3-[[6-[3-(Difluoromethoxy)-4-fluoro-phenyl]pyrazin-2-yl]methyl]-N,N-dimethyl-2-oxo-oxazolidine-5-carboxamide]	141 nM	
CC1(C)CN(Cc2cncc(-c3cccc(C(C)(F)F)c3)n2)C(=O)O1 [Example 39, 3-[[6-[3-(1,1-Difluoroethyl)phenyl]pyrazin-2-yl]methyl]-5,5-dimethyl-oxazolidin-2-one]		4510 nM
C[C@@H]1CN(Cc2cncc(-c3cccc(C(C)(F)F)c3)n2)C(=O)O1 [Example 40, (5R)-3-[[6-[3-(1,1-Difluoroethyl)phenyl]pyrazin-2-yl]methyl]-5-methyl-oxazolidin-2-one]		39 nM
C[C@H]1CN(Cc2cncc(-c3cccc(C(C)(F)F)c3)n2)C(=O)O1 [Example 41, (5S)-3-[[6-[3-(1,1-Difluoroethyl)phenyl]pyrazin-2-yl]methyl]-5-methyl-oxazolidin-2-one]		167 nM
CC(F)(F)c1cccc(-c2cncc(CN3CCCOC3=O)n2)c1 [Example 42, 3-[[6-[3-(1,1-Difluoroethyl)phenyl]pyrazin-2-yl]methyl]-1,3-oxazinan-2-one]		105 nM
Cc1ncc(-c2cccc(C(C)(F)F)c2)nc1CN1CC2(CC2)OC1=O [Example 43, 5-[[6-[3-(1,1-Difluoroethyl)phenyl]-3-methyl-pyrazin-2-yl]methyl]-7-oxa-5-azaspiro[2.4]heptan-6-one]		203 nM
Cc1ncc(-c2cccc(C(C)(F)F)c2)nc1CN1CC(C)(C)OC1=O [Example 44, 3-[[6-[3-(1,1-Difluoroethyl)phenyl]-3-methyl-pyrazin-2-yl]methyl]-5,5-dimethyl-oxazolidin-2-one]		> 3000 nM
Cc1ncc(-c2cccc(C(C)(F)F)c2)nc1CN1CCCOC1=O [Example 45, 3-[[6-[3-(1,1-Difluoroethyl)phenyl]-3-methyl-pyrazin-2-yl]methyl]-1,3-oxazinan-2-one]		127 nM
C[C@@H]1COC(=O)N1Cc1cncc(-c2ccc(F)c(C(C)(F)F)c2)n1 [Example 46, (4R)-3-[[6-[3-(1,1-Difluoroethyl)-4-fluoro-phenyl]pyrazin-2-yl]methyl]-4-methyl-oxazolidin-2-one]		166 nM
C[C@H]1COC(=O)N1Cc1cncc(-c2ccc(F)c(C(C)(F)F)c2)n1 [Example 47, (4S)-3-[[6-[3-(1,1-Difluoroethyl)-4-fluoro-phenyl]pyrazin-2-yl]methyl]-4-methyl-oxazolidin-2-one]		624 nM
CC(F)(F)c1cccc(-c2cncc(CN3CCC4(CC4)OC3=O)n2)c1 [Example 48, 6-[[6-[3-(1,1-Difluoroethyl)phenyl]pyrazin-2-yl]methyl]-8-oxa-6-azaspiro[2.5]octan-7-one]		124 nM
O=C1OC2(CCN1Cc1cncc(-c3ccc(F)c(OC(F)F)c3)n1)CC2 [Example 49, 6-[[6-[3-(Difluoromethoxy)-4-fluoro-phenyl]pyrazin-2-yl]methyl]-8-oxa-6-azaspiro[2.5]octan-7-one]		48 nM
O=C1OC2(CCN1Cc1cncc(-c3ccc(Cl)c(OC(F)F)c3)n1)CC2 [Example 50, 6-[[6-[4-Chloro-3-(difluoromethoxy)phenyl]pyrazin-2-yl]methyl]-8-oxa-6-azaspiro[2.5]octan-7-one]		49 nM
O=C1OC2(CCN1Cc1cncc(-c3ccc(F)c(C(F)F)c3)n1)CC2 [Example 52, 6-[[6-[3-(Difluoromethyl)-4-fluoro-phenyl]pyrazin-2-yl]methyl]-8-oxa-6-azaspiro[2.5]octan-7-one]		61 nM
Cc1ncc(-c2ccc(F)c(C(F)F)c2)nc1CN1CCC2(CC2)OC1=O [Example 53, 6-[[6-[3-(Difluoromethyl)-4-fluoro-phenyl]-3-methyl-pyrazin-2-yl]methyl]-8-oxa-6-azaspiro[2.5]octan-7-one]		102 nM
Cc1ncc(-c2ccc(F)c(OC(F)F)c2)nc1CN1CCC2(CC2)OC1=O [Example 54, 6-[[6-[3-(Difluoromethoxy)-4-fluoro-phenyl]-3-methyl-pyrazin-2-yl]methyl]-8-oxa-6-azaspiro[2.5]octan-7-one]		74 nM
O=C1OC(C(=O)N2CCC2)CN1Cc1cncc(-c2ccc(Cl)c(OC(F)F)c2)n1 (stereo not shown) [Example 57, 5-(Azetidine-1-carbonyl)-3-[[6-[4-chloro-3-(difluoromethoxy)phenyl]pyrazin-2-yl]methyl]oxazolidin-2-one]		2000 nM
O=C1OC2(CNC2)CN1Cc1cncc(-c2ccc(Cl)c(OC(F)F)c2)n1 [Example 67, 6-[[6-[4-Chloro-3-(difluoromethoxy)phenyl]pyrazin-2-yl]methyl]-8-oxa-2,6-diazaspiro[3.4]octan-7-one]		530 nM
CN1CC2(C1)CN(Cc1cncc(-c3ccc(Cl)c(OC(F)F)c3)n1)C(=O)O2 [Example 68, 6-[[6-[4-Chloro-3-(difluoromethoxy)phenyl]pyrazin-2-yl]methyl]-2-methyl-8-oxa-2,6-diazaspiro[3.4]octan-7-one]		599 nM
